Reference: patent publication US20230372232A1, “ORAL CARE COMPOSITION COMPRISING SWEET POTATO-DERIVED POTATO SYRUP OR SUPERNATANT OF POTATO SYRUP” (KARAIMO NOJYO CO., LTD., priority 2020, published 2023)

Legend:
[1] = tested on: Streptococcus mutans; assay: Tooth plaque formation inhibition by potato syrup with malt, crystal violet A570 (Test Example 6); type: cell-based; conditions: 1% concentration sucrose; BHI medium, 37° C., 48 hours
Procedure: A basic sample was produced by impregnating 1% concentration sucrose (white sugar) in a BHI medium and adding 0.1 mL of Streptococcus mutans liquid (approximately 1000 bacterial bodies) thereto. Next, another additive-free sample in which the sucrose (white sugar) was not at all impregnated in the basic sample was produced. There were also individually produced a sample in which 10% of the potato syrup with malt of Example 3 was added instead of the 1% concentration sucrose (white sugar) to the basic sample and a sample in which 10% of the potato syrup of Example 1-B was added instead of the 1% concentration sucrose (white sugar) to the basic sample. The respective samples were subject to a culture process at 37° C. for 48 hours. Afterwards, the supernatant liquids of the culture fluids were discarded, and then, the respective samples were washed twice with 0.2 mL of distilled water. Afterwards, 0.2 mL each of 0.1% crystal violet were added to each of the samples, a stir staining operation was performed for 20 minutes, and then, the staining fluids were discarded. The residues were washed twice with 0.2 mL of distilled water. Then, the pigment was eluted with 0.2 mL of 99.5% ethanol and the absorbance (570 nm) was measured. Based on the results, the plaque (tooth plaque) formation inhibition rates (%) were calculated.

[2] = tested on: Streptococcus mutans; assay: Tooth plaque formation inhibition, crystal violet A570 (Test Examples 3 and 4); type: cell-based; conditions: 1% concentration sucrose (sample 8); BHI medium, 37° C., 48 hours
Procedure: A basic sample (a sample 8) was produced by impregnating 1% concentration sucrose (white sugar) in a BHI medium of twice the normal concentration and adding 0.1 mL of Streptococcus mutans liquid (approximately 1000 bacterial bodies) thereto. Next, another sample (a sample 9) in which the sucrose (white sugar) was not at all impregnated in the basic sample (the sample 8) was produced. There were also individually produced a sample (10) in which 10% of the potato syrup of Example 1-A was added instead of the 1% concentration sucrose (white sugar) to the basic sample (the sample 8), a sample (11) in which 10% of the potato syrup of Example 1-B was added instead of the 1% concentration sucrose (white sugar) to the basic sample (the sample 8), and a sample (12) in which 10% of the potato syrup of Example 1-C was added instead of the 1% concentration sucrose (white sugar) to the basic sample (the sample 8). The respective samples were subject to a culture process at 37° C. for 48 hours. […] Then, the pigment was eluted with 0.2 mL of 99.5% ethanol, and the absorbance (570 nm) was measured. Based on the results, the plaque (tooth plaque) formation inhibition rates (%) were calculated. The results are shown in FIG. 3. plaque formation inhibition rate (%)=[A570(no sucrose added)−A570 (sample added)]/A570(no sucrose added)×100 A570: absorbance of crystal violet eluted with ethanol at 570 nm. […]

With `OC[C@H]1O[C@@](CO)(O[C@H]2O[C@H](CO)[C@@H](O)[C@H](O)[C@H]2O)[C@@H](O)[C@@H]1O` [sucrose] the “plaque (tooth plaque) formation” value [1] was “the plaque (tooth plaque) rapidly grew” and the “plaque (tooth plaque) formation” value [2] was “the plaque (tooth plaque) rapidly grew”.
